In assay [1] the test system is human embryonic kidney 293 cells. As to the kind of experiment: 293-NIK TK Renilla Luciferase reporter (general measure of cell viability). The class given is cell-based. Particulars: HEK293, 293 cells, constitutive Renilla luciferase, 24 hours, read-out: inhibitory value (IC50) for 293-NIK TK Renilla Luciferase activity. From the text: (1) The first assay was used to profile whether a test compound can inhibit the NF-kB signally through NIK inhibition without affecting cell viability. In this assay, human embryonic kidney 293 cells was stably transfected with a tetracycline-inducible NIK DNA construct containing a cytomegalovirus promoter plus two reporter DNA constructs. One reporter encoded firefly luciferase under the control of three repeats of an NF-kB response element from the ELAM-1 gene and reflects the level of NIK activity in the cells, whereas the other reporter constitutively expressed Renilla luciferase under the control of the herpes simplex virus thymidine kinase promoter and served as a general measure of cell viability. Cells were incubated with different concentrations of compounds (0.2% DMSO final) in medium containing 1 ug/mL doxycycline and 10% tet-system approved fetal bovine serum (Clontech) for 24 hours, after which the reporters' signals were detected using the Dual Glo luciferase detection system (Promega) according to the vendor's protocol. The compounds listed in Table 1 have the corresponding inhibitory value (IC50 in micromolar) for 293-NIK NF-kB-Luciferase activity (values for compounds are presented in the same order as found in Table 1): na, 0.059, na, na, na, 0.105, 0.027, na, 20, 1.2, na, 1.8, 0.0231, 0.879, 0.0361, 0.582, na, 0.142, na, 0.403, 0.059, 0.0331, na, na, 0.0573, 1.5, na, na, 0.0722, na, na, 0.589, 12.7, 3.7, 14.9, na, 0.707, 1, 0.0311, 0.332, 0.309, 0.0142, 0.051, 2.8, 0.129, na, na, 1.5, na, na, na, 1.3, 0.062, 20, 0.31, 0.104, 0.091, 0.037, 0.085, 0.279, na, 0.305, 0.064, 0.332, 0.133, 0.168, 0.217, 0.553, na and na.
The compounds in listed in Table 1 have the corresponding inhibitory value (IC50 in micromolar) for 293-NIK TK Renilla Luciferase activity: (values for compounds are presented in the same order as found in Table 1): 6.4, 3.6, 20, na, 1.6, 9.3, 18.5, na, na, 2.6, na, na, na, na, na, na, na, na, na, na, na, na, na, na, na, na, na, na, na, na, na, na, na, na, na, na, na, na, na, na, na, na, na, na, na, na, na, >20, na, na, na, 20, >20, 17, 1.3, 15.6, 0.967, 2.7, 11.2, 5.1, na, 20, 20, 20, 20, 20, 17.6, 20, na and na.

Assay [2] deals with NF-kB signaling through NIK in human embryonic kidney 293 cells. As to the kind of experiment: 293-NIK NF-kB-Luciferase reporter assay. The class given is cell-based. Particulars: HEK293, 293 cells with tetracycline-inducible NIK, 1 ug/mL doxycycline, 24 hours, read-out: inhibitory value (IC50) for 293-NIK NF-kB-Luciferase activity. The essentials: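 HEK293 cells stably carrying tetracycline-inducible NIK plus NF-kB (ELAM-1 element) firefly luciferase and constitutive TK-Renilla viability reporter. Compounds (0.2% DMSO) incubated 24 h with 1 ug/mL doxycycline; Dual Glo luminescence read, IC50 from firefly signal.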
(In a reporter assay the amount or activity of a reporter protein is the signal.)

The target of assay [3] is T1, nuclear factor-kappa B (NF-kB)-inducing kinase (NIK) (Homo sapiens, UniProt Q99558).
T1 construct: made in house; host or cells: baculovirus-infected insect cells
Kind of assay: NIK Enzyme Inhibition Assay (Transcreener ADP assay). The class given is biochemical. Particulars: purified NIK 0.2-1 nM, 10 uM ATP, fluorescence polarization, Morrison's quadratic equation; read-out: inhibitory value (Ki) for NIK. (In general: Fluorescence polarisation rises when a labelled molecule tumbles more slowly, as on binding a larger partner.)

The test system of assay [4] is p52 (NF-kB2) nuclear translocation in HeLa cells. As to the kind of experiment: NIK p52 Translocation Assay (non-classical NF-kB signaling). Format: cell-based. Particulars: Homo sapiens; HeLa cells, 100 ng/mL anti-lymphotoxin beta receptor antibody, 5 hours; read-out: inhibitory value (IC50) for NIK p52 Translocation Assay. The method, then: (§1) (2) A second set of cell assay was used to define the selectivity of NIK inhibitors toward inhibition of classical vs. non-classical NF-kB signaling and rely on quantification of the nuclear translocation of p52 (NF-kB2) and REL-A (p65) using high content cellular imaging. For the p52 (non-classical NF-kB signaling) nuclear translocation assay, HeLa cells were treated with different concentrations of compounds (0.2% DMSO final) in medium containing 10% fetal bovine serum and then stimulated with 100 ng/mL of an anti-lymphotoxin beta receptor antibody (R&D Systems) for 5 hours. In the REL-A nuclear translocation assay, HeLa cells were incubated with compounds (0.2% DMSO final) for 4.5 hours in medium containing 10% fetal bovine serum before stimulating them with 10 ng/mL tumor necrosis factor (TNF)-α (R&D Systems) for 30 minutes. Cells were fixed with 4% paraformaldehyde, permeabilized by adding 0.1% Triton X-100 in phosphate buffered saline, and then incubated with either 2 ug/mL anti-p52 antibody (Millipore) or 400 ng/mL anti-REL-A (p65) antibody (Santa Cruz Biotechnology). Finally, the cells were incubated with an Alexa488-labeled secondary antibody (Invitrogen) and DRAQ5 DNA stain (Biostatus). Imaging was carried out using an Opera reader (Perkin Elmer) and data are analyzed with the aid of Acapella software (Perkin Elmer). The p52 or REL-A translocation into the nucleus was quantified by the ratio of the nuclear to cytoplasmic signal intensity. The concentration of inhibitor required for 50% inhibition (IC50 values) in these cell assays were derived from the plots of signal vs. inhibitor concentration. The compounds in listed in Table 1 have the corresponding inhibitory value (IC50 in micromolar) for NIK p52 Translocation Assay (values for compounds are presented in the same order as found in Table 1, and “na” means the data for this assay is to be determined): 0.326, 0.33, na, na, na, 0.218, 0.07, na, na, na, 0.129, 7.6, 0.077, 3.4, na, 0.518, na, 0.059, 0.514, 0.127, na, na, 0.010, na, na, 0.313, 0.275, na, 0.0727, na, na, na, na, na, na, 0.194, na, 6.4, 0.22, 0.346, na, na, na and na, na, na, na, na, na, 0.447, na, 0.089, 0.479, 0.489, 0.243, 0.747, 1, na, 1.9, 0.552, 2.1, na. na, na, na, na and na.

Assay [5] deals with REL-A (p65) nuclear translocation in HeLa cells. As to the kind of experiment: NIK RelA Translocation Assay (classical NF-kB signaling). Format: cell-based. The following applies: Homo sapiens; HeLa cells, compounds 4.5 hours, 10 ng/mL TNF-α 30 minutes; read-out: inhibitory value (IC50) for NIK RelA Translocation Assay. On the procedure: as §1
The compounds in listed in Table 1 has the corresponding inhibitory value (IC50 in micromolar) for NIK RelA Translocation Assay (values for compounds are presented in the same order as found in Table 1): 0.326, 0.33, na, na, na, 0.218, 0.07, na, na, na, na, na, 0.129, 7.6, 0.077, 3.4, na, 0.518, na, 0.059, 0.514, 0.127, na, na, 0.010, na, na, 0.313, 0.275, na, na, 0.0727, na, na, na, na, na, na, 0.194, na, 6.4, 0.22, 0.346, na, na, na, na, na, na, na, na, na, 0.447, na, 0.089, 0.479, 0.489, 0.243, 0.747, 1, na, 1.9, 0.552, 2.1, na, na, na, na, na and na.

T1 sequence (Q99558 whole entry): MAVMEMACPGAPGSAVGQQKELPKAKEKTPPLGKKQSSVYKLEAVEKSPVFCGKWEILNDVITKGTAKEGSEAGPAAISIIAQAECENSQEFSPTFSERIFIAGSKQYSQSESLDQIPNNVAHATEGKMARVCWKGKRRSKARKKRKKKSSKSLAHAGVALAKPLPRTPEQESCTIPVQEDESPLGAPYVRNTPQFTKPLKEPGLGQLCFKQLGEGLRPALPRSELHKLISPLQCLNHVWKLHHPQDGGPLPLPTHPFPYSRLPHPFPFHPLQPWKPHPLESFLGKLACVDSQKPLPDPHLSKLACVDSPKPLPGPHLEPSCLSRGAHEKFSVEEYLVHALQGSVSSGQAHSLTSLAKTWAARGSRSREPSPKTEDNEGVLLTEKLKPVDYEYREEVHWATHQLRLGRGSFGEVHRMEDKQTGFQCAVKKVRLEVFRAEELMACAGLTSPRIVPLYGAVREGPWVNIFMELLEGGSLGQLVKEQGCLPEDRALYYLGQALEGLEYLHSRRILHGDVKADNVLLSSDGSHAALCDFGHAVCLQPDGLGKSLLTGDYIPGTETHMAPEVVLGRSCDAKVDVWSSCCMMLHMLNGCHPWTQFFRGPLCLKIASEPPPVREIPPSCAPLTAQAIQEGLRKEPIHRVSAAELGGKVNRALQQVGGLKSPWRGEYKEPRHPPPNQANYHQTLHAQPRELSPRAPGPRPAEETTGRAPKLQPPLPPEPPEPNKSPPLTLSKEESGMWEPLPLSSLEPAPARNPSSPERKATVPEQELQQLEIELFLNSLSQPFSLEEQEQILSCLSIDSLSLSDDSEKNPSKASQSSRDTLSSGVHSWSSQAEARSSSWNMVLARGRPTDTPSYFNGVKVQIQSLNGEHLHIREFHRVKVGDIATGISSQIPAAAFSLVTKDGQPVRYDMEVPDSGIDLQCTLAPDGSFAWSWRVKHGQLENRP

Usually IC50 stands for the midpoint of a concentration-inhibition curve. `N#Cc1ccc2cnn(-c3ccnc(N)n3)c2c1` [Example T1-3, 1-(2-aminopyrimidin-4-yl)-1H-indazole-6-carbonitrile]: the IC50 in assay [1] is ≥ 20000 nM.

On to `Nc1nccc(-n2ncc3ccc(C#CC4(O)CCCC4)cc32)n1` [Example T1-5, 1-((1-(2-aminopyrimidin-4-yl)-1H-indazol-6-yl)ethynyl) cyclopentanol], for which the IC50 in assay [1] is 1600 nM.

One may read the Ki as a dissociation constant, usually derived from enzyme kinetics or from competition with a known ligand. For the compound `CC(C)(O)C#Cc1ccc2ncn(-c3ccnc(N)n3)c2c1` [Example T1-10, 4-(1-(2-aminopyrimidin-4-yl)-1H-benzo[d]imidazol-6-yl)-2-methylbut-3-yn-2-ol], the IC50 in assay [1] was found to be 2600 nM; in assay [2] it was 1200 nM. Further, the Ki in assay [3] was 14.3 nM.

Regarding `Cc1cc(C(C)(O)C#Cc2ccc3c(C)nn(-c4ccnc(N)n4)c3c2)on1` (stereo not shown) [Example T1-48, 4-(1-(2-aminopyrimidin-4-yl)-3-methyl-1H-indazol-6-yl)-2-(3-methylisoxazol-5-yl)but-3-yn-2-ol], the values for the IC50 in assay [1] and in assay [2] were > 20000 nM and 1500 nM, respectively. The Ki in assay [3] is 13 nM.

For the compound `Cc1cc(C(C)(O)C#Cc2ccc3c(C(=O)N(C)C)nn(-c4ccnc(N)n4)c3c2)on1` (stereo not shown) [Example T1-52, 1-(2-aminopyrimidin-4-yl)-6-(3-hydroxy-3-(3-methyl-isoxazol-5-yl)but-1-ynyl)-N,N-dimethyl-1H-indazole-3-carboxamide], the IC50 is ≥ 20000 nM in assay [1], 1300 nM in assay [2] and 89 nM in assay [4]. Moreover, in assay [3], the Ki is 10 nM.

Turning to `Cc1nn(-c2ccnc(N)n2)c2cc(C#CC(C)(O)c3cncs3)ccc12` (stereo not shown) [Example T1-54, 4-(1-(2-aminopyrimidin-4-yl)-3-methyl-1H-indazol-6-yl)-2-(thiazol-5-yl)but-3-yn-2-ol], the IC50 in assay [1] is 17000 nM; in assay [2], 20000 nM; in assay [4], 489 nM. The Ki in assay [3] worked out at 105 nM.

Turning to `Cc1cc(C(C)(O)C#Cc2ccc3c(C)nn(-c4ccnc(N)n4)c3c2)no1` (stereo not shown) [Example T1-58, 4-(1-(2-aminopyrimidin-4-yl)-3-methyl-1H-indazol-6-yl)-2-(5-methylisoxazol-3-yl)but-3-yn-2-ol], the 50% inhibitory concentration (IC50) in assay [1] is 2700 nM; in assay [5] it was 243 nM; in assay [2], 37 nM. Besides, in assay [3], the Ki was found to be 0.15 nM.

With `Cc1nn(-c2ccnc(N)n2)c2cc(C#CC(C)(O)c3cnccn3)ccc12` (stereo not shown) [Example T1-62, 4-(1-(2-aminopyrimidin-4-yl)-3-methyl-1H-indazol-6-yl)-2-(pyrazin-2-yl)but-3-yn-2-ol], the IC50 in assay [1] was ≥ 20000 nM; in assay [5], 1900 nM; in assay [2], 305 nM. Moreover, the Ki in assay [3] amounted to 17 nM.

For `C[C@@](O)(C#Cc1ccc2nc(C3CC3)n(-c3ncnc(N)n3)c2c1)c1nccs1` [Example T1-63, (R)-4-(1-(4-amino-1,3,5-triazin-2-yl)-2-cyclopropyl-1H-benzo[d]imidazol-6-yl)-2-(thiazol-2-yl)but-3-yn-2-ol], the figures for the IC50 in assay [1], in assay [5] and in assay [2] were ≥ 20000 nM, 552 nM and 64 nM, respectively. In assay [3], the Ki worked out at 0.23 nM.

As for `Cc1cc(C(C)(O)C#Cc2ccc3c(C(=O)N4CCOCC4)nn(-c4ccnc(N)n4)c3c2)no1` (stereo not shown) [Example T1-65, (1-(2-aminopyrimidin-4-yl)-6-(3-hydroxy-3-(5-methyl-isoxazol-3-yl)but-1-ynyl)-1H-indazol-3-yl)(morpholino) methanone], the IC50 in assay [1] is ≥ 20000 nM; in assay [2], 133 nM. In addition, the Ki in assay [3] came out at 2.65 nM.

Turning to `Cc1cc(C(C)(O)C#Cc2ccc3c(C(=O)N4CCCC4)nn(-c4ccnc(N)n4)c3c2)no1` (stereo not shown) [Example T1-66, (1-(2-aminopyrimidin-4-yl)-6-(3-hydroxy-3-(5-methyl-isoxazol-3-yl)but-1-ynyl)-1H-indazol-3-yl)(pyrrolidin-1-yl) methanone], the IC50 in assay [1] was ≥ 20000 nM; in assay [2], 168 nM. In assay [3], the Ki is 1.27 nM.

With `Cc1nn(-c2ccnc(N)n2)c2cc(C#CC(C)(O)c3ncccn3)ccc12` (stereo not shown) [Example T1-67, 4-(1-(2-aminopyrimidin-4-yl)-3-methyl-1H-indazol-6-yl)-2-(pyrimidin-2-yl)but-3-yn-2-ol], the IC50 in assay [1] amounted to 17600 nM; in assay [2] it was 217 nM. For the same compound, in assay [3], the Ki is 4 nM.

`COCc1nc2ccc(C#C[C@@](C)(O)c3nccs3)cc2n1-c1ncnc(N)n1` [Example T1-68, (R)-4-(1-(4-amino-1,3,5-triazin-2-yl)-2-(methoxymethyl)-1H-benzo[d]imidazol-6-yl)-2-(thiazol-2-yl)but-3-yn-2-ol]: the IC50 was ≥ 20000 nM in assay [1] and 553 nM in assay [2]. In addition, in assay [3], the Ki was 2.7 nM.

(Values after patent publication US8901313B2, “6,5-heterocyclic propargylic alcohol compounds and uses therefor” (Genentech, Inc., priority 2011, dated 2014).)
